# In ChEMBL document CHEMBL5653615 (J Biol Chem, 2013):
# Experiments:
# [1] = molecular target: Misshapen-like kinase 1 (Homo sapiens) (UniProt Q8N4C8); assay: Inhibition of human MINK1 at 18.6 nM by HotSpot assay relative to control
# [2] = molecular target: T1, Serine/threonine-protein kinase Nek2 (Homo sapiens) (UniProt P51955); assay: Inhibition of human NEK2 at 18.6 nM by HotSpot assay relative to control
# T1 sequence (whole entry): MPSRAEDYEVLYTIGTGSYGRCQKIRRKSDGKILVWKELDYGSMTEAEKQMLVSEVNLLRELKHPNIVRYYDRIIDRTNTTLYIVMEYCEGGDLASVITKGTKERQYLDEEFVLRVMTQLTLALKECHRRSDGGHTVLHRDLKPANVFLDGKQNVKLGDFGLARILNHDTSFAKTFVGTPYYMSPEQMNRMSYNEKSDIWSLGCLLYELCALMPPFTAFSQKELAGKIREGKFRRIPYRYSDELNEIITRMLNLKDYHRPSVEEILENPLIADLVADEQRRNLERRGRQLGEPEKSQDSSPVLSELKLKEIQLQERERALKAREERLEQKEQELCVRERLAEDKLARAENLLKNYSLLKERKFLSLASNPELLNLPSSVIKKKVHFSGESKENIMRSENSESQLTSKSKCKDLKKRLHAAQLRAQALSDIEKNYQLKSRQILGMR
# [3] = molecular target: Casein kinase II subunit alpha' (Homo sapiens) (UniProt P19784); assay: Inhibition of human CK2a2 at 18.6 nM by HotSpot assay relative to control
# [4] = molecular target: T2, cGMP-dependent protein kinase 1 (Homo sapiens) (UniProt Q13976); assay: Inhibition of human PKG1b at 18.6 nM by HotSpot assay relative to control
# T2 sequence (whole entry): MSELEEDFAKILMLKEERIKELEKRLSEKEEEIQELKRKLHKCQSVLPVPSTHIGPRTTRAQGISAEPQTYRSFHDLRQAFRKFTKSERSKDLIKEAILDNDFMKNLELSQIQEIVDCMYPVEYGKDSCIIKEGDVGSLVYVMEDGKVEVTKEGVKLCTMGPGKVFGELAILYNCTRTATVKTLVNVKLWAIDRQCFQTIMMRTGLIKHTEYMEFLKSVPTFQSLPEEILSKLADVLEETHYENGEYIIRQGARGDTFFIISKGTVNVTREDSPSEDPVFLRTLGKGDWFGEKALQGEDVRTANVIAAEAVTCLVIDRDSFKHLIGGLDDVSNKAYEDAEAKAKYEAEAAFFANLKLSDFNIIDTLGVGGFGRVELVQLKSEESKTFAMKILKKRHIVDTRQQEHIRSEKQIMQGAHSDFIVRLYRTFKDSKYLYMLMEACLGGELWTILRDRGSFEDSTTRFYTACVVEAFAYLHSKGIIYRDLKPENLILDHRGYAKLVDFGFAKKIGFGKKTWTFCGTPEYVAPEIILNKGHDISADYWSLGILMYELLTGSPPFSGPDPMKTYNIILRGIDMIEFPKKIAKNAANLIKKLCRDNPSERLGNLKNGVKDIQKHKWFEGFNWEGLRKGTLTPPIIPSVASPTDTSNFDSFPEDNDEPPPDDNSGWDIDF
# [5] = molecular target: Casein kinase I isoform epsilon (Homo sapiens) (UniProt P49674); assay: Inhibition of human CK1epsilon at 1.82 nM by HotSpot assay relative to control
# [6] = molecular target: Calcium/calmodulin-dependent protein kinase kinase 1 (Homo sapiens) (UniProt Q8N5S9); assay: Inhibition of human CAMKK1 at 1.82 nM by HotSpot assay relative to control
# [7] = molecular target: T3, Serine/threonine-protein kinase Nek3 (Homo sapiens) (UniProt P51956); assay: Inhibition of human NEK3 at 1.82 nM by HotSpot assay relative to control
# T3 sequence (whole entry): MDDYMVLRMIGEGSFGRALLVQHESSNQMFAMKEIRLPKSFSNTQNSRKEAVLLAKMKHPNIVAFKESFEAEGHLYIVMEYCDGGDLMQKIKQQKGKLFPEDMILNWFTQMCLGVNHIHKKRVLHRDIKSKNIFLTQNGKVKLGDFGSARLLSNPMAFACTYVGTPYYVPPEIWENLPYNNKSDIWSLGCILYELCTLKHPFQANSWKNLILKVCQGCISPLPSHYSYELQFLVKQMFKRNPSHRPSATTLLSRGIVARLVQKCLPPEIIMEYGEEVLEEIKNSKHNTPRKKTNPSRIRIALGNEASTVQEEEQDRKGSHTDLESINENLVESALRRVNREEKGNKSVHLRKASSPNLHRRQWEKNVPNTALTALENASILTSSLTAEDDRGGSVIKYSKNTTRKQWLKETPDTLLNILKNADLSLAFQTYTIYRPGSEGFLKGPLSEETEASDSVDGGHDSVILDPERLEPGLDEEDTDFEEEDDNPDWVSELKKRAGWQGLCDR
# [8] = molecular target: Protein kinase C beta type (Homo sapiens) (UniProt P05771); assay: Inhibition of human PKCb1 at 500 nM by HotSpot assay relative to control
# [9] = molecular target: T4, Dual serine/threonine and tyrosine protein kinase (Homo sapiens) (UniProt Q6XUX3); assay: Inhibition of human RIPK5 at 500 nM by HotSpot assay relative to control
# T4 sequence (whole entry): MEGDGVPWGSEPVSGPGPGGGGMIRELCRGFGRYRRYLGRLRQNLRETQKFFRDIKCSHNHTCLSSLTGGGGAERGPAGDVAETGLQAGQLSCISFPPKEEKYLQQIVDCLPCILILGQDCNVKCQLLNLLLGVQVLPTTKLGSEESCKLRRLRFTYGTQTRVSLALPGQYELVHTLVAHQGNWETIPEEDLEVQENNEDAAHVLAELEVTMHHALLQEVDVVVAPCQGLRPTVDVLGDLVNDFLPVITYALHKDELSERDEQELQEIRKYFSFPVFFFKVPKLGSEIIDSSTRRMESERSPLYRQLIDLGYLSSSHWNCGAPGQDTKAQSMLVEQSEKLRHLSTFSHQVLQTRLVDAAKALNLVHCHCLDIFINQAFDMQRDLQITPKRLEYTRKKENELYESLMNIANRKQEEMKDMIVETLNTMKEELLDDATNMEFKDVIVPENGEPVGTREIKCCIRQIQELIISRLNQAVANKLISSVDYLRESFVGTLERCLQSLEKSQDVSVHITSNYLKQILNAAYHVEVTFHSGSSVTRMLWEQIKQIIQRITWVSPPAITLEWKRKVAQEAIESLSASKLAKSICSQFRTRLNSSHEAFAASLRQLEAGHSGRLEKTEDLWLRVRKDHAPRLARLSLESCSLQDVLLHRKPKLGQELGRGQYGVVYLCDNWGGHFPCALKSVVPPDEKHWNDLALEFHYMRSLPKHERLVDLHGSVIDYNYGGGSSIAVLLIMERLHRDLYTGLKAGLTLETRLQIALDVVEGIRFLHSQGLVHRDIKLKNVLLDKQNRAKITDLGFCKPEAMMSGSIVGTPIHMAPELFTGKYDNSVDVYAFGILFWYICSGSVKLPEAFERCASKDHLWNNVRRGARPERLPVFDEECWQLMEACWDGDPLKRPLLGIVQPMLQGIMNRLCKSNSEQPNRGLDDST
# Misshapen-like kinase 1 (Homo sapiens), sequence (Q8N4C8 whole entry, looked up): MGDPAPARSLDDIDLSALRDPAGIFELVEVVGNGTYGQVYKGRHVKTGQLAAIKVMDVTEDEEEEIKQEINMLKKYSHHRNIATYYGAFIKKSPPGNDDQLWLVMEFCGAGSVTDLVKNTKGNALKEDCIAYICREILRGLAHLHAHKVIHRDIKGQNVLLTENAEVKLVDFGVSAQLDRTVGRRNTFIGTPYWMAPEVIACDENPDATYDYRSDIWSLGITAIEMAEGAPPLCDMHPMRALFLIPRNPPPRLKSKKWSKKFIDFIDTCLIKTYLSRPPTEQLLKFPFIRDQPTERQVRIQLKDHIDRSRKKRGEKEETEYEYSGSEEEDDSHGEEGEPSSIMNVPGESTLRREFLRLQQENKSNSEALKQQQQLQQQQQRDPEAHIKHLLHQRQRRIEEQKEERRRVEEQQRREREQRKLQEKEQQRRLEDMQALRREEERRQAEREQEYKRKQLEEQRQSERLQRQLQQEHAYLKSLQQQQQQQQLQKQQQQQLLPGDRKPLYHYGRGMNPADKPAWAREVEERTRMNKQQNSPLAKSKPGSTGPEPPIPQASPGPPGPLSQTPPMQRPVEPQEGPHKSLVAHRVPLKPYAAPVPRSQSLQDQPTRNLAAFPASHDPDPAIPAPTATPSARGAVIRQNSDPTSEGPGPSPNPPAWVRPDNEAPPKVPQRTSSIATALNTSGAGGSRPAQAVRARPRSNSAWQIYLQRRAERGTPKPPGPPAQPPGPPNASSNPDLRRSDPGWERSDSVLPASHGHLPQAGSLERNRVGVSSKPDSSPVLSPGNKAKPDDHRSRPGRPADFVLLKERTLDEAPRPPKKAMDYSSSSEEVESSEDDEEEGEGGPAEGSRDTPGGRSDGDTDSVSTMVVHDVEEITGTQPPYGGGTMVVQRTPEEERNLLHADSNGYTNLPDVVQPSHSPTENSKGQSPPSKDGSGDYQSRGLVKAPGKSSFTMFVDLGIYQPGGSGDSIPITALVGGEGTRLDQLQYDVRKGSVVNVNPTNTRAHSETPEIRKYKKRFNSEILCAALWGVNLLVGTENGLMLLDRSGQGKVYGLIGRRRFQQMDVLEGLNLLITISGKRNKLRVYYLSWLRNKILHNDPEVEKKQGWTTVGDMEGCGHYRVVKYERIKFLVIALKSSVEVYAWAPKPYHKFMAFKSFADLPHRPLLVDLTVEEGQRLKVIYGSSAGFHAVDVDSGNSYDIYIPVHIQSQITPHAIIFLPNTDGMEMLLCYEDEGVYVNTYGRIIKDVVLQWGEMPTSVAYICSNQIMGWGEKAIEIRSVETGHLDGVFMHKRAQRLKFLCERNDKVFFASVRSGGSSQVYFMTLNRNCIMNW
# Protein kinase C beta type (Homo sapiens), sequence (P05771 2-671 limits assumed): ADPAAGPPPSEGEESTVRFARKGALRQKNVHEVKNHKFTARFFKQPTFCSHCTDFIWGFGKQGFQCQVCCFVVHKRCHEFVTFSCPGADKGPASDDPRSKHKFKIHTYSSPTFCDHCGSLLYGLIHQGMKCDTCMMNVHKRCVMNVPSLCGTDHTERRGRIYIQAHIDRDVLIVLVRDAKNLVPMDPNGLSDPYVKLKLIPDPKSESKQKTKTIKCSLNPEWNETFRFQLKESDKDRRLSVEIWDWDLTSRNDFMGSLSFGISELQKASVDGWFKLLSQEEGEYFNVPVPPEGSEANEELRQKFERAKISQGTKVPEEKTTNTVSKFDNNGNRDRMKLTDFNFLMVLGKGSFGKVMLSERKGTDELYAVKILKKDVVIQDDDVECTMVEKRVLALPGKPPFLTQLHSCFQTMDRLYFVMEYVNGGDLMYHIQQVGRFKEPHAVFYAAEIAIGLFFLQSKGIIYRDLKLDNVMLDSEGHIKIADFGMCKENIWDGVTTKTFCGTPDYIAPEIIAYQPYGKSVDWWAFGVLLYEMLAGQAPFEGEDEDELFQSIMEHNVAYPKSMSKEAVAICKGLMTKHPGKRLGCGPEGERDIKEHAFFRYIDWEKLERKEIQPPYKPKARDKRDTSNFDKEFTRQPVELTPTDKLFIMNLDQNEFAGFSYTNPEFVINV
# Casein kinase II subunit alpha' (Homo sapiens), sequence (P19784 whole entry, looked up): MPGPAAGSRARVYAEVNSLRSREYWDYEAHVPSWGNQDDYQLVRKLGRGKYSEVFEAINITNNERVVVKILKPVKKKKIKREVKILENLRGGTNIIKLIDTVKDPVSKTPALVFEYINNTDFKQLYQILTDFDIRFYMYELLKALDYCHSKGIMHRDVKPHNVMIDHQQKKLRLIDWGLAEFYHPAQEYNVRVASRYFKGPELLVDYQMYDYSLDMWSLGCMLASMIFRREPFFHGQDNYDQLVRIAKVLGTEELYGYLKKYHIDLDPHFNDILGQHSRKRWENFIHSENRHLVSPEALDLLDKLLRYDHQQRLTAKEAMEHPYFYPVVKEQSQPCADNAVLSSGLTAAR
# Casein kinase I isoform epsilon (Homo sapiens), sequence (P49674 whole entry, looked up, canonical isoform): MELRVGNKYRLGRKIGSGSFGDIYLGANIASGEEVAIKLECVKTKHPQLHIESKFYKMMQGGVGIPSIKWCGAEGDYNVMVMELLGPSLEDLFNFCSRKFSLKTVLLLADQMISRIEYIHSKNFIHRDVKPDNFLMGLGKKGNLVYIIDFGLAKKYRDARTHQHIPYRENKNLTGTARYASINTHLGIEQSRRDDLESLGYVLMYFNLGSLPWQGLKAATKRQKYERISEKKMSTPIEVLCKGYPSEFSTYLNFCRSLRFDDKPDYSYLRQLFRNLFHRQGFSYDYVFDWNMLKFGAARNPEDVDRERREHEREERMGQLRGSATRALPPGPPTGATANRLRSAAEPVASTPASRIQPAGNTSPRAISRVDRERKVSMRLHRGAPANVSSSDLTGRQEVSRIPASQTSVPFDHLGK
# Calcium/calmodulin-dependent protein kinase kinase 1 (Homo sapiens), sequence (Q8N5S9 whole entry, looked up): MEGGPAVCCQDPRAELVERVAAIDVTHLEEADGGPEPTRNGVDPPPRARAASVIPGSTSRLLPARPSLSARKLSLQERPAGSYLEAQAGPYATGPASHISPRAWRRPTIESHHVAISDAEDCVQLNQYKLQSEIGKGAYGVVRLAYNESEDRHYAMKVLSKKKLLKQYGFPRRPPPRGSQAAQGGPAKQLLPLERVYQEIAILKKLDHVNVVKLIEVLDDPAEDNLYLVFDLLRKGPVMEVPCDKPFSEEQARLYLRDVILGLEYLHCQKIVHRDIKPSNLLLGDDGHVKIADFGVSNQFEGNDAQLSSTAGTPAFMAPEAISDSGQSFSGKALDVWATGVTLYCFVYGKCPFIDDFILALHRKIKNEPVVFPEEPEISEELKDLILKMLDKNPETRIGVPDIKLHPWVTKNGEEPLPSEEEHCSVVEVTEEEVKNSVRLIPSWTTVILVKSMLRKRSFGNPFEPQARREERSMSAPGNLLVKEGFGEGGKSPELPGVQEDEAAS
smiles,measurement,setting,value
C[C@]1(O)C[C@@H](c2nc(-c3ccc4ccc(-c5ccccc5)nc4c3)c3c(N)nccn32)C1,inhibition,[1],-2.76%
same,inhibition,[2],4.82%
same,inhibition,[3],38.2%
same,inhibition,[4],-6.35%
C[C@@]1(C(=O)Nc2ccc(F)nc2)CCCN1c1nc(Nc2cc(C3CC3)n[nH]2)c2cccn2n1,inhibition,[5],1.26%
same,inhibition,[6],-5.91%
same,inhibition,[7],1.63%
Nc1n[nH]c2nnc(-c3c(-c4ccccc4)nn4ccccc34)cc12,inhibition,[8],3.54%
same,inhibition,[9],4.06%
